Columns and labels:
[1] = test system: P. aeruginosa PA14 nfxB T39P mutants; test: Cross resistance of fluorofolin-resistant mutant; assay type: cell-based; details: 2×MIC
From the text: NfxB is a transcriptional regulator protein that represses expression of the MexCD-OprN efflux pump.

[2] = test system: PA14 mutants with disruptions in mexA, mexB and oprM; test: MIC against MexAB-OprM transposon mutants; assay type: cell-based, P. aeruginosa; details: oprM transposon mutants vs wildtype PA14
Method: FIG. 1I is the minimum inhibitory concentration of fluorofolin or trimethoprim against transposon mutants for each component of the MexAB-OprM efflux pump. MIC against wildtype PA14 was calculated to control for each drug stock. MIC values are representative of two independent replicates.
P. aeruginosa PA14 transposon mutants were generated by the Ausubel Lab (http://ausubellab.mgh.harvard.edu/cgi-bin/pa14/home.cgi). The MICs of fluorofolin and TMP against strains with disrupted MexA, MexB, and OprM were determined as above and compared to the parental strain. As transposon mutants in MexB were represented twice in this collection, the MIC was confirmed across both mutant strains.

[3] = test system: P. aeruginosa PA14; test: MIC in LB Broth; assay type: cell-based; details: Pseudomonas aeruginosa; P. aeruginosa PA14, compound alone
Method: The minimum inhibitory concentration is defined as the lowest concentration of antibiotic at which no visible growth was detected after 16 hours at 37° C. Overnight cultures were diluted 1:150 in LB Broth and added to a 96-well plate. Antibiotics were serially diluted 1:2 and added to columns of the 96-well plate and grown at 37° C. with continuous shaking. Cell growth was measured by optical density (OD600). MIC assays were performed in either BioTek Synergy HT (Winooski, VT) or Tecan InfiniteM200 Pro (Männedorf, CH) microplate readers.

[4] = test system: folate metabolism in P. aeruginosa; test: Metabolomics (LC-MS metabolite abundance); assay type: cell-based; details: PA14, 2×MIC for 15 min, vs solvent control; P=0.0186 and 0.0196
Method: Metabolite abundance was quantified in comparison to the solvent only control. Data represents mean±SD for 3 biological replicates. P values were calculated using unpaired t-test using Prism 9 (P values≤0.05)
To test the ability of fluorofolin to inhibit P. aeruginosa DHFR in vivo, metabolomics were performed. As a positive control for DHFR inhibition, we turned to TMP.
Overnight P. aeruginosa PA14 cultures were diluted 1:150 in Gutnick Minimal Media and grown to early-mid exponential phase (OD600=0.4-0.6).
LC-MS analysis of metabolites was performed on Orbitrap Exploris 240 mass spectrometer coupled with hydrophilic interaction liquid chromatography (HILIC)^64. […] Flow rate was 0.15 mL/min, and column temperature was set at 25° C. […] The orbitrap resolution was 180,000 at m/z of 200. The maximum injection time was 200 ms, and the automatic gain control (AGC) target was 1000%. Raw mass spectrometry data were converted to mzXML format by MSConvert (ProteoWizard). Pick-peaking was done on El Maven (v0.8.0, Elucidata).

Row | Structure (SMILES) | resistance of nfxB T39P mutants [1] | change of MIC in efflux pump mutants [2] | MIC [3] [µg/mL] | abundance of AICAR and dUMP [4]
1 | O=C(O)c1cn(C2CC2)c2cc(N3CCNCC3)c(F)cc2c1=O [ciprofloxacin] | cross-resistant |  |  | 
2 | COc1cc(Cc2cnc(N)nc2N)cc(OC)c1OC [trimethoprim, reference compound] |  | large reductions in MIC | 125 | significant upregulation
